Results as given in ChEMBL document CHEMBL1201862, “PubChem BioAssay data set” (2004).
The source made the active and inactive calls.

What was measured:
Cytochrome P450 2D6 = Cytochrome P450 2D6 (Homo sapiens, UniProt P10635);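 also: CYP2D6 member of a cytochrome P450 panel assay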
Cytochrome P450 2C9 = Cytochrome P450 2C9 (Homo sapiens, UniProt P11712)
Paired box protein Pax-8 = Paired box protein Pax-8 (Homo sapiens, UniProt Q06710); assay: PAX8 transcriptional activity inhibition in RMG-I – RMG-I cells, luciferase, cherry-pick, dose response (AID 687027); assay type: functional, cell-based;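 also: luciferase reporter driven by Pax8 target thyroperoxidase promoter measured by SteadyGlo luminescence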
Cytochrome P450 2C19 = Cytochrome P450 2C19 (Homo sapiens, UniProt P33261); assay: Cytochrome panel assay with activity outcomes. Panel member name: p450-cyp2c19 Compounds with AC50 equal or less than 10 uM are considered active; assay type: functional; conditions: read-out: AC50
Cytochrome P450 1A2 = biological target: T1, Cytochrome P450 1A2 (Homo sapiens, UniProt P05177);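 also: PubChem cytochrome P450 panel assay, CYP1A2 panel member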
T1 sequence (P05177 whole entry): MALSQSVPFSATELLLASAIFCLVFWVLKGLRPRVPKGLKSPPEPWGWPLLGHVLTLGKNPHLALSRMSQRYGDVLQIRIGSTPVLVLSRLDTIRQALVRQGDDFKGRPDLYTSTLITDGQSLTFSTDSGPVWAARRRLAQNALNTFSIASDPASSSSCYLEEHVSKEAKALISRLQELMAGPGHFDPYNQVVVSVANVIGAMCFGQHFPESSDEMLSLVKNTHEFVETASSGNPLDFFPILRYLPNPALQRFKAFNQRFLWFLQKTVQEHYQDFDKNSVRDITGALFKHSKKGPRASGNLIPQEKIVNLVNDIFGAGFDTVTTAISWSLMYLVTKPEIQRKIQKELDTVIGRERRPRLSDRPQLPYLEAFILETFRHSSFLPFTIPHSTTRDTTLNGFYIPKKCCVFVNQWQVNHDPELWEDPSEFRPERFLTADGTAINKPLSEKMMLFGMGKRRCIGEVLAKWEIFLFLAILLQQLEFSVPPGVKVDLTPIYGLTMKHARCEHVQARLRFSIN

Cytochrome P450 3A4 = Cytochrome P450 3A4 (Homo sapiens, UniProt P08684);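 also: CYP3A4 tested as one member of a cytochrome P450 panel screen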
[1] = biological target: T2, Zinc finger protein mex-5 (Caenorhabditis elegans, UniProt Q9XUB2); assay: potency of MEX-5 RNA-binding blockers – biochemical, C. elegans, fluorescence polarization, dose response (AID 1960)
T2 sequence (Q9XUB2 whole entry): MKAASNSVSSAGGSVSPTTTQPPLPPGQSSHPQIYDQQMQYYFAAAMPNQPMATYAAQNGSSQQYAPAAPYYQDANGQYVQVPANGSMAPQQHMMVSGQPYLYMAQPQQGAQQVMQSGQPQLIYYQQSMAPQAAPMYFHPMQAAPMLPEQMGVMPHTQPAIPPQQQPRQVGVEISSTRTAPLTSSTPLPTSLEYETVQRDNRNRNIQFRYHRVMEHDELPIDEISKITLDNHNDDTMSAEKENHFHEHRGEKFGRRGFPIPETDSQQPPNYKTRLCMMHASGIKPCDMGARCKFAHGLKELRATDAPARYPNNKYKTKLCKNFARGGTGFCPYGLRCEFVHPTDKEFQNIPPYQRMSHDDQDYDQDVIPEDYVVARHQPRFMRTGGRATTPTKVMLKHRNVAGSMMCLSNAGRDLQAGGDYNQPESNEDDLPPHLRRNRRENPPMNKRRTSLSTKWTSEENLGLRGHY

[2] = biological target: T3, RNA-binding protein pos-1 (Caenorhabditis elegans, UniProt G5EF15); assay: disruptors of C. elegans POS-1 RNA interaction – biochemical, fluorescence polarization, dose response (AID 1964);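 also: purified POS-1 fused to maltose binding protein made in E. coli; potency of compounds blocking POS-1 binding to fluorescent RNA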
T3 sequence (G5EF15 whole entry): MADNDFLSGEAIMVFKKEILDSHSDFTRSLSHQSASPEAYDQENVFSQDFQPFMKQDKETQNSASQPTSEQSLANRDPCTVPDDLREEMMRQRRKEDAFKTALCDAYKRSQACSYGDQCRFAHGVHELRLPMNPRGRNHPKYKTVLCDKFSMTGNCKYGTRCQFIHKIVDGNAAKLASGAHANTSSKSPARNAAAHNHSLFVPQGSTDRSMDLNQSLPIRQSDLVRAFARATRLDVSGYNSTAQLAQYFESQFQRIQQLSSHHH

H4 = assay: Luminescence Cell-Based Dose Response HTS to Identify Activators of 5'UTR Stem-Loop Driven Prion Protein mRNA Translation in H4 Neuroglioblastoma Cells. [Related pubchem assays: 1829 (Project Summary), 1814 (Primary HTS)]; assay type: functional; conditions: Homo sapiens
[3] = Luminescence Cell-Based Dose Response HTS to Identify Activators of Luciferase Translation or Activity in H4 […] Cells. [Related pubchem assays: 1829 (Project Summary), 1814 (Primary HTS)]; assay type: functional
Protein RecA = biological target: T4, Protein RecA (Mycobacterium tuberculosis, UniProt P9WHJ3); assay: Fluorescence Cell-Free Homogeneous Dose Retest to Identify Inhibitors of RecA-Intein Splicing Activity. [Related pubchem assays (depositor defined):AID2097, AID2223, AID489010, AID492950]; assay type: functional
T4 sequence (P9WHJ3 whole entry): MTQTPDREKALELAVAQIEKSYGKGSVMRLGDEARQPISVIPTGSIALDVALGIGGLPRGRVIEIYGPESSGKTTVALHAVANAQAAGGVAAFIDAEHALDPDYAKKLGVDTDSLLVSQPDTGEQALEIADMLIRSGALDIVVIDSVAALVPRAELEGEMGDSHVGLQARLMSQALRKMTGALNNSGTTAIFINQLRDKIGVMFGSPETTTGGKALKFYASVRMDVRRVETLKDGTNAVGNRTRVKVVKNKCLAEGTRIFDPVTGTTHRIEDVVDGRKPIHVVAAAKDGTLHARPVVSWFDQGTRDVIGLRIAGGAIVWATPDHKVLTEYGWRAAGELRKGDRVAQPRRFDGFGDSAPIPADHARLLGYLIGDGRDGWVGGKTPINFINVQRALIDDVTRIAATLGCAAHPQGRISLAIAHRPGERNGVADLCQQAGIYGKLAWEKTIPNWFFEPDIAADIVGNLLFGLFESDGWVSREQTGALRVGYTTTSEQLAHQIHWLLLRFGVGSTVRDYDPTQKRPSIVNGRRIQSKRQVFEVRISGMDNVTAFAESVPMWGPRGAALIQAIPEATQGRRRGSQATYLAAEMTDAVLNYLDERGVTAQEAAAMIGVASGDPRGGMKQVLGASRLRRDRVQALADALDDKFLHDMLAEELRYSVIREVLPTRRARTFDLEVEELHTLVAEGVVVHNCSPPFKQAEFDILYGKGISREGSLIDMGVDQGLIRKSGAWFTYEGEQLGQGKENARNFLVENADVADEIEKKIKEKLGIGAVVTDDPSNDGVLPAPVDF

[4] = biological target: T5, Replicative DNA helicase DnaB (Mycobacterium tuberculosis, UniProt P9WMR3); assay: DnaB intein splicing inhibitors, dose response, biochemical, cell-free fluorescence (AID 449749); assay type: functional
T5 sequence (P9WMR3 whole entry): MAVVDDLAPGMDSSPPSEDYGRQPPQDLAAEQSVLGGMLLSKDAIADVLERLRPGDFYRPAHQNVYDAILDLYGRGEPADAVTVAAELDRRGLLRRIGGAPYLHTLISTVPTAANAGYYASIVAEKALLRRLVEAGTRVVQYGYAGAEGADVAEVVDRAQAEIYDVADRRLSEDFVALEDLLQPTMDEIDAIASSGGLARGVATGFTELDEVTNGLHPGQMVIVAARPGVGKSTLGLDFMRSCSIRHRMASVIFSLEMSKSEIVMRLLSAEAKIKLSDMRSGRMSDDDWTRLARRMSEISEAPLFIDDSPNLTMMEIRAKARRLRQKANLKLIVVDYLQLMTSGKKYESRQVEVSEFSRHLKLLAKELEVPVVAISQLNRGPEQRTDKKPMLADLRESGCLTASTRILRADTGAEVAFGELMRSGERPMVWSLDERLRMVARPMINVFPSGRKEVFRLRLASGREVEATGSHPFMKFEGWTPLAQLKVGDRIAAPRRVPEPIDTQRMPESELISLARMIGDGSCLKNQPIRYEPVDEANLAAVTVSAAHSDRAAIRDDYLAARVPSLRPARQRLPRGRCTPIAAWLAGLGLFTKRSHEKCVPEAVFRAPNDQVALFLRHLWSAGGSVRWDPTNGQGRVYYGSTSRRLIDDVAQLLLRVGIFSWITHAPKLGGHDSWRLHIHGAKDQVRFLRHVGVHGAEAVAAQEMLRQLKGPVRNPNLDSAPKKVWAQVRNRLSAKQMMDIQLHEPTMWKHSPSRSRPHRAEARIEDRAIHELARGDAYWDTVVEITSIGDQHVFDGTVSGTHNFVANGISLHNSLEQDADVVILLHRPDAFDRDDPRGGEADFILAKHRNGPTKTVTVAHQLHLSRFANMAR

Cytochrome P450 2C19, sequence (P33261 whole entry): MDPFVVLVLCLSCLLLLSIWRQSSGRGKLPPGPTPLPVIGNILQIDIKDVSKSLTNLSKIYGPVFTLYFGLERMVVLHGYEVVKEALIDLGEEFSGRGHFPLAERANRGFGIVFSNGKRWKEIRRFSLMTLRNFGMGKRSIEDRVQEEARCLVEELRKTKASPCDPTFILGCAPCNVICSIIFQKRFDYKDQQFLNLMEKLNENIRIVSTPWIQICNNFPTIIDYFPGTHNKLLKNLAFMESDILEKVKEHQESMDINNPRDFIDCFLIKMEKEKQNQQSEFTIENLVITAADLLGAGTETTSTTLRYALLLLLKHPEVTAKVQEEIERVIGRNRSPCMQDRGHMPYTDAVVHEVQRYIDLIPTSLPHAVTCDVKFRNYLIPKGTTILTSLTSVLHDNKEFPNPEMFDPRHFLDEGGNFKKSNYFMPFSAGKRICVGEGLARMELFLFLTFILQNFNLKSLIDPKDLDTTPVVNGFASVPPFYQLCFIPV
Cytochrome P450 2D6, sequence (P10635 whole entry): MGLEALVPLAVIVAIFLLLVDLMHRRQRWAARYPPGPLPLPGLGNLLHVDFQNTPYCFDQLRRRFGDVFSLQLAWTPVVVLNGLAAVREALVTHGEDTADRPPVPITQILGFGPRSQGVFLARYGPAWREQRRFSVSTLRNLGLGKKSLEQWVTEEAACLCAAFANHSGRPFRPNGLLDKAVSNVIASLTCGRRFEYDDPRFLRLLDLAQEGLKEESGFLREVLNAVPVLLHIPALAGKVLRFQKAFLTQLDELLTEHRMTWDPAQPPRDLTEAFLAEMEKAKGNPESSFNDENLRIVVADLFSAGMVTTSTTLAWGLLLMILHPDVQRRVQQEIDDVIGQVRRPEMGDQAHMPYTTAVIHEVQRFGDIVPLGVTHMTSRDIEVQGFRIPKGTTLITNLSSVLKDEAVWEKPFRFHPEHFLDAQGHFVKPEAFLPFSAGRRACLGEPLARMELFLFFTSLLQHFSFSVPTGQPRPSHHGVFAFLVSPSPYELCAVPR
Paired box protein Pax-8, sequence (Q06710 whole entry): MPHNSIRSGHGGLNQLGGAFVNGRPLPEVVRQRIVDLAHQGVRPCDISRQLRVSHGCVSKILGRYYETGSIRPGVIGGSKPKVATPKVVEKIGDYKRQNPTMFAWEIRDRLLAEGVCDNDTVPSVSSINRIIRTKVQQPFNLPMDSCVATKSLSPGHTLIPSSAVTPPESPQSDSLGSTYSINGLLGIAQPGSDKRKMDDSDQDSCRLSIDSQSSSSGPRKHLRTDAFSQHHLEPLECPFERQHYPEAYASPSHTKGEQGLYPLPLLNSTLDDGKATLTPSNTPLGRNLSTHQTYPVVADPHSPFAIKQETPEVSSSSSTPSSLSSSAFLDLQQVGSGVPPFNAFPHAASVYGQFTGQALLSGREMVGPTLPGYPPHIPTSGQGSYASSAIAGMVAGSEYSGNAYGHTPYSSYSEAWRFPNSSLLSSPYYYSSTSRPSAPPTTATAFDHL
Cytochrome P450 2C9, sequence (P11712 whole entry): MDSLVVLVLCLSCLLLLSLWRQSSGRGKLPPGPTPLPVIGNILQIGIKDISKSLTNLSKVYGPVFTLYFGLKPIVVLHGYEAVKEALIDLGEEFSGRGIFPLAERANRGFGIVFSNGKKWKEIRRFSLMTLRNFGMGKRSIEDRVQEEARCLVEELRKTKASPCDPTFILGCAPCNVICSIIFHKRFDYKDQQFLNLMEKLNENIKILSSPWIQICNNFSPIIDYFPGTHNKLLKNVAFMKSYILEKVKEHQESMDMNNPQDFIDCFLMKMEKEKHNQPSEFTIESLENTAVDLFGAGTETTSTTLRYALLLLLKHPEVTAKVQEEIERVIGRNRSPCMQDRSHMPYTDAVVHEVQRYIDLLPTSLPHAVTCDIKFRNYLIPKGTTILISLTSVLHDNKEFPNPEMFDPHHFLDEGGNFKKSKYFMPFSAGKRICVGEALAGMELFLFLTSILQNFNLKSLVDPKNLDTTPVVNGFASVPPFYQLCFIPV
Cytochrome P450 3A4, sequence (P08684 whole entry): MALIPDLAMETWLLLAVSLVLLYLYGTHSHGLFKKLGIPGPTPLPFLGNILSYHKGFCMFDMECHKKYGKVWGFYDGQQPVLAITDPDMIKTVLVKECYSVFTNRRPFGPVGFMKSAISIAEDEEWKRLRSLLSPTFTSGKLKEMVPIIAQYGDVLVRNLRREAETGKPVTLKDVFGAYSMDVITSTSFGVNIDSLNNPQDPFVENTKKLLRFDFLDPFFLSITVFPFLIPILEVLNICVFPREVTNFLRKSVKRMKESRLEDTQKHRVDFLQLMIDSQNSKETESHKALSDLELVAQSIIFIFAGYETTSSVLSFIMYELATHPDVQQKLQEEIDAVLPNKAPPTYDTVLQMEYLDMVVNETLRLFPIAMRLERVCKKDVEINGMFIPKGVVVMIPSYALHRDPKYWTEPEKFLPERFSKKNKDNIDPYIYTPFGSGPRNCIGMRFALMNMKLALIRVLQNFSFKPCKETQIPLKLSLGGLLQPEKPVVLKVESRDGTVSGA

SMILES | AC50 (Cytochrome P450 2D6) | EC50 [1] | EC50 [2] | further results
CC(C)C(=O)NCCCc1ccccc1 | 20 µM (inconclusive) |  |  | AC50 (Cytochrome P450 2C9): 5.62 µM (inconclusive)
Cc1ccc(S(=O)(=O)Nc2ccc3c(c2)C(=O)N([C@@H](C)CO)C[C@@H](C)[C@@H](CN(C)Cc2ccc(C(F)(F)F)cc2)OCCCC[C@@H](C)O3)cc1 |  |  |  | AC50 (Paired box protein Pax-8): 13.3 µM (active)
O=C(NCc1ccc2c(c1)OCO2)C1CC(=O)N(C2CCCC2)C1 (stereo not drawn) | 12.6 µM (inconclusive) |  |  | AC50 (Cytochrome P450 2C19): 35.5 µM (inconclusive); AC50 (Cytochrome P450 1A2): 17.8 µM (inconclusive)
COc1ccc(NC(=O)CSc2nnc(CNC(=O)c3ccco3)n2-c2ccccc2OC)cc1 | 35.5 µM (inconclusive) |  |  | AC50 (Cytochrome P450 3A4): 39.8 µM (inconclusive); AC50 (Cytochrome P450 2C19): 3.98 µM (inconclusive); AC50 (Cytochrome P450 2C9): 5.01 µM (inconclusive)
COc1ccc(C2=CC3=CC(=O)C(C)(O)C(=O)C3=CO2)cc1 (stereo not drawn) |  | 25.5 µM (active) | 45.6 µM (active) | 
CC1(OC(=O)C2CCCC2)C(=O)C=C2C=C(C3CC3)OC=C2C1=O (stereo not drawn) |  | > 300 µM (not active) | > 300 µM (not active) | 
C1=Cc2ccccc2C1.C=C(C)c1ccccc1.[N-]=[N+]=Nc1ccccc1 | 3.98 µM (inconclusive) |  |  | AC50 (Cytochrome P450 2C19): 3.16 µM (inconclusive)
Clc1ccc(COc2ccccn2)cc1Cl | 11.2 µM (inconclusive) |  |  | 
COC(=O)[C@@]1(Cc2ccc(F)cc2)[C@H]2c3cc(C(=O)N(C)C)n(Cc4cc(C)n(C)n4)c3C[C@H]2CN1C(=O)c1ccccc1 | 39.8 µM (inconclusive) |  |  | AC50 (Cytochrome P450 2C19): 39.8 µM (inconclusive)
COC(=O)[C@@]1(Cc2ccc(F)cc2)[C@H]2c3cc(C(=O)N(C)C)n(Cc4ccc(Cl)c(C(F)(F)F)c4)c3C[C@H]2CN1C(=O)c1ccccc1 | 6.31 µM (inconclusive) |  |  | AC50 (Cytochrome P450 2C19): 5.01 µM (inconclusive); AC50 (Cytochrome P450 1A2): 15.8 µM (inconclusive)
COc1cc(OC)c2c(-c3cccc(-c4ccc(OC)c(F)c4)c3)cc(=O)oc2c1 |  |  |  | AC50 (Paired box protein Pax-8): 1.08 µM (active)
Cc1ccc(/C=C2\C(=O)NC(=O)N(CC3CCCO3)C2=O)s1 (stereo not drawn) |  | > 300 µM (not active) | > 300 µM (not active) | 
CCCCn1nc(C(=O)Nc2cc(C(F)(F)F)ccc2N2CCOCC2)ccc1=O |  |  |  | AC50 (Paired box protein Pax-8): 4.7 µM (active)
Cc1cc(/C=N/n2cnnc2)c(C)n1-c1ccc(C(=O)O)cc1 |  | > 300 µM (not active) | > 300 µM (not active) | 
CCc1c(C)nc(SCC(=O)NNC(=O)c2ccco2)[nH]c1=O |  | 10.1 µM (active) | 7.26 µM (inconclusive) | 
Cc1ccc(-c2ccc(CCC(=O)O)n2-c2ccc(C(=O)O)cc2)cc1 |  | > 300 µM (not active) | > 300 µM (not active) | 
COC(=O)[C@@]1(Cc2ccc(OC)cc2)[C@H]2c3cc(C(=O)N4CCCC4)n(CCc4ccc(O)c(OC)c4)c3C[C@H]2CN1C(=O)c1ccccc1 | 39.8 µM (inconclusive) |  |  | 
O=C1NC(=O)/C(=C2\C(=O)Nc3ccc(Br)cc32)S1 |  | 11 µM (active) | 17 µM (active) | 
CCn1c(CNC(=O)c2ccc(Cl)cc2)nnc1SCC(=O)N1CCOCC1 |  | > 300 µM (not active) | > 300 µM (not active) | 
[O-][n+]1onc2c3ccnnc3ccc21 |  |  |  | EC50 (H4): > 120 µM (not active); EC50 [3]: 1.93 µM (active)
COc1ccc(S(=O)(=O)Nc2ccc3c(c2)CC(=O)N([C@H](C)CO)C[C@H](C)[C@@H](CN(C)Cc2ccc(Cl)c(Cl)c2)O3)cc1 |  |  |  | AC50 (Paired box protein Pax-8): 16.2 µM (active)
O=C1N=NC2=C1c1c3ccccc3c(O)n1CC2 |  |  |  | EC50 (Protein RecA): 7.63 µM (active); AC50 [4]: 15.6 µM (active)
Cc1cccc(Nc2nc3c(s2)CCCC3)c1 |  |  |  | EC50 (H4): 3.41 µM (active); EC50 [3]: 2.59 µM (active)
CC1(C)CC(=O)C2=C(C1)OC(N)=C(C#N)C2c1ccc(OC(=O)N2CCOCC2)cc1 (stereo not drawn) |  | > 300 µM (not active) | > 300 µM (not active) | 
O=C(CN1CCN(c2ccc(Cl)cc2)CC1)Nc1cccc(F)c1 | 1.41 µM (inconclusive) |  |  | AC50 (Cytochrome P450 3A4): 25.1 µM (inconclusive)
CCOc1ccc(C(CN2CCOCC2)C(C)=O)cc1OC (stereo not drawn) |  |  |  | AC50 (Paired box protein Pax-8): 1.68 µM (active)
COc1ccc2[nH]c(-c3ccccc3)c(CCNC(C)=O)c2c1 | 25.1 µM (inconclusive) |  |  | 
Cc1cc(N2C(=O)C(O)=C(C(=O)c3cc4ccccc4o3)C2c2ccc([N+](=O)[O-])cc2)no1 (stereo not drawn) |  | 45.4 µM (active) | > 300 µM (not active) | 
CC(=O)O[C@@H]1CN2CCC1CC2 [(S)-ACECLIDINE] | 15.8 µM (inconclusive) |  |  | 
